These results are taken from US11091460B2, “Syk inhibitor and use method therefor” (CHIA TAI TIANQING PHARMACEUTICAL GROUP CO., LTD., priority 2017, dated 2021).

Assay [1] has as its target T1, SYK kinase (Homo sapiens, UniProt P43405).
T1 construct: purchased Invitrogen PV3857
Briefly: In vitro test of the inhibition effect on SYK kinase (HTRF). The note with it: tyrosine kinase 0.0156 ng/μL, substrate 0.2 uM, ATP 2 uM, 23° C. 1 hour, read-out: Inhibit SYK kinase IC50. Format: biochemical. The method, then:
Experimental Example 1: In Vitro Test of the Inhibition Effect of the Example Compounds on SYK Kinase
Adenosine triphosphate concentration was controlled at 2 uM. • 4) Loaded with a Multidrop automatic dispenser, and a mixture of tyrosinase solution and tyrosine kinase-substrate-biotin/adenosine triphosphate was added in an amount of 5 ul per well, and incubated at 23° C. for 1 hour. • c) Detection phase: • 1) Added 13.33 mL of ethylenediaminetetraacetic acid solution to the Detection Buffer in the kit, added the specified amount of […] (Eu)-labeled antibody and streptavidin XL-665, and prepared the detection solution. • 2) Loaded with a Multidrop automatic dispenser, and 10 uL of the detection solution per well, incubated at 23° C. for 1 hour. It terminated the reaction of the enzyme and substrate mixture. • 3) Reading after centrifugation on a multi-function microplate reader, • d) Data Analysis: Analyzed the data with XL-Fit, and calculated the IC50 value of the compound.
(In general: TR-FRET usually uses a lanthanide donor and a delayed reading to cut background.)

For assay [2], the system named is AKT phosphorylation. In words: In vitro test of the inhibition effect on AKT phosphorylation (ELISA, Ramos cells). Format: cell-based. As to conditions: Homo sapiens, Ramos. The method, then:
Experimental Example 2: In Vitro Test of the Inhibition Effect of the Example Compounds on AKT Phosphorylation
• 2.1 Experimental Purpose: Intracellular protein kinase AKT phosphorylation detected by experiment was measured by enzyme-linked immunosorbent assay (ELISA), and the inhibition of the compound on protein kinase AKT phosphorylation was evaluated by an index of the half-cell inhibition concentration (IC50) value of the compound. • 2.2 Experimental Materials: • Cell line: Ramos cell line • Cell culture medium (RPMI1640, Invitrogen #22400-105; 10% serum Gibco #10099-141; L-glutamine 1×, Gibco #25030-081) • Experimental medium (without serum, RPM11640, Invitrogen #22400-105; L-glutamine 1×, Gibco #25030) • Lysis buffer (trishydroxymethylaminomethane hydrochloride, Invitrogen15567-1000 ml; sodium chloride, domestic; sodium deoxycholate, Sigma30970-25 G; polyethylene glycol octylphenyl ether, SigmaT9284-100 ml; dodecane sodium sulfonate, SigmaL3771; ethylenediaminetetraacetic acid, Invitrogen15575-038-100 ml; ultrapure water, MilliQ) • Protease inhibitor (Roche, 4693159001-30/BOX) • Phosphatase inhibitor mixture 2 (Sigma, P5726-5 ML) • Phosphatase inhibitor mixture 3 (Sigma, P0044-5 ML) • Goat Anti-Human immunoglobulin M (F(ab′)2 Goat Anti-Human IgM) (Jackson Immuno Research-109-006-129) • Phosphorylated AKT assay kit (Phospho-AKT 1/2/3 (ser473)) (TGR Bioscience, EKT002) • 10× Hank's balanced salt solution (Gibco #14065-056) • 96-well cell plate (Greiner #655090) • Compound V-well dilution plate (Axygen #WITP02280) • CO2 incubator (Thermo #371) • Centrifuge (Eppendorf #581 OR) • Vi-cell cell counter (Beckman Coulter) • Pipette (Eppendorf) • Pipette (Greiner) • Pipetting gun (Eppendorf) • Multi-purpose microplate reader (Envision Reader) • 2.3 Experimental procedures and methods: • a) Cell Seeding (Ramos Cells) • 1) The medium was preheated in a 37° C. water bath. Suspended cells and their culture solution were aspirated, centrifuged at 1000 rpm for 5 minutes. • 2) Aspirated the cell culture medium, added 10 mL of pre-warmed medium to the centrifuge tube, blew off the resuspended cells, pipette 1 mL of the cell suspension, and counted with Vi-cell; • 3) The Ramos cells were diluted with a medium to a density of 5×10^6/mL, and the diluted cells were added to a 96-well cell culture plate (100 μL/well) using a lance. Placed the cell plates in a 37° C., 5% CO2 incubator for overnight. • b) Cell starvation: • 1) After cultured the inoculation cells for overnight, centrifuged at 1000 rpm for 5 minutes on the next day, aspirated the original medium by a lance, added serum-free experimental medium, placed the cell plates in a 37° C., 5% CO2 incubator, and starved for overnight. • c) Compound preparation and dosing: • 1) The compound was diluted with dimethyl sulfoxide to give an initial concentration of 5 mM. A triple gradient dilution was done with compound V dilution plate to make 10 concentration points. • 2) Took another new compound V-well dilution plate, added 198 ul of serum-free experimental medium to each well, and then added 2 ul of the diluted compound above to each well, and mixed with a lance. […]
In general terms: ELISA stands for enzyme-linked immunosorbent assay.

[3] abbreviates: Ramos cell line, compound 1 hour, goat anti-human IgM 10 ug/ml for 10 minutes, Phospho-AKT 1/2/3 (ser473) ELISA, read-out: Inhibit AKT phosphorylation IC50.

Structures are written as SMILES. Like-named read-outs stand apart in the source and are kept apart here.

Regarding `Cn1c(=O)c(Nc2ccc(N3CCS(=O)(=O)CC3)cc2)nc2ccc(-c3cn[nH]c3)cc21` [Example 35, 3-((4-(1,1-Dioxothiomorpholine)phenyl)amino)-1-methyl-7-(1H-pyrazol-4-yl)quinoxaline-2(1H)-one], the IC50 (as a rule, the concentration at which inhibition is half-maximal) in assay [1] was determined as 5.1 nM; in assay [2] (setting [3]), 52.2 nM.

Take `CN1CCCN(c2ccc(Nc3nc4ccc(-c5cn[nH]c5)cc4n(C)c3=O)cc2)CC1` [Example 37, 1-Methyl-3-((4-(4-methyl-1,4-diazepan-1-yl)phenyl)amino)-7-(1H-pyrazol-4-yl)quinoxaline-2(1H)-one]: the IC50 is 10.1 nM in assay [1] and 261 nM in assay [2] (setting [3]).

Turning to `Cn1c(=O)c(Nc2ccc(S(=O)(=O)N3CCCCC3)cc2)nc2ccc(-c3cn[nH]c3)cc21` [Example 38, 1-Methyl-3-((4-(piperidin-1-ylsulfonyl)phenyl)amino)-7-(1H-pyrazol-4-yl)quinoxaline-2(1H)-one], the results for the IC50 in assay [1] and in assay [2] (setting [3]) were 40 nM and 343 nM, respectively.

For `Cn1c(=O)c(Nc2ccc(N3CCNCC3)cc2)nc2ccc(-c3cn[nH]c3)cc21` [Example 39, 1-Methyl-3-((4-(piperazin-1-yl)phenyl)amino)-7-(1H-pyrazol-4-yl)quinoxaline-2(1H)-one], the IC50 in assay [1] came out at 3.6 nM; in assay [2] (setting [3]), 60.1 nM.

Regarding `Cn1c(=O)c(Nc2ccc(N3CCOCC3)cc2)nc2c(Cl)cc(-c3cn[nH]c3)cc21` [Example 41, 5-Chloro-1-methyl-3-((4-morpholinephenyl)amino)-7-(1H-pyrazol-4-yl)quinoxaline-2(1H)-one], the IC50 in assay [1] is 4.8 nM; in assay [2] (setting [3]), 98.8 nM.

For the compound `Cn1c(=O)c(Nc2ccc(N3CCOCC3)cc2)nc2c(F)cc(-c3cn[nH]c3)cc21` [Example 44], the figures for the IC50 in assay [1] and in assay [2] (setting [3]) were 4.4 nM and 97 nM, respectively.

`Cn1c(=O)c(Nc2ccc(N3CCOCC3)cc2)nc2cc(F)c(-c3cn[nH]c3)cc21` [Example 45, 6-Fluoro-1-methyl-3-((4-morpholinephenyl)amino)-7-(1H-pyrazol-4-yl)quinoxaline-2(1H)-one]: the IC50 amounted to 20.2 nM in assay [1] and 83.3 nM in assay [2] (setting [3]).

As for `Cn1c(=O)c(Nc2ccc(N3CCOCC3)cc2)nc2ccc(-c3cn[nH]c3)c(F)c21` [Example 46, 8-Fluoro-1-methyl-3-((4-morpholinephenyl)amino)-7-(1H-pyrazol-4-yl)quinoxaline-2(1H)-one], the results for the IC50 in assay [1] and in assay [2] (setting [3]) were 9.5 nM and 114 nM, respectively.

With `Cn1c(=O)c(Nc2ccc(N3CCOCC3)c(F)c2)nc2ccc(-c3cn[nH]c3)cc21` [Example 48, 3-((3-Fluoro-4-morpholinephenyl)amino)-1-methyl-7-(1H-pyrazol-4-yl)quinoxaline-2(1H)-one], the IC50 in assay [1] stood at 10.5 nM; in assay [2] (setting [3]), 114 nM.

In the case of `Cn1c(=O)c(Nc2ccc(N3C4CCC3CNC4)cc2)nc2ccc(-c3cn[nH]c3)cc21` [Example 54, 3-[4-(3,8-Diazabicyclo[3.2.1]octane-8-yl)aniline]-1-methyl-7-(1H-pyrazol-4-yl)quinoxaline-2(1H)-one], the IC50 in assay [1] turned out to be 5 nM; in assay [2] (setting [3]), 69 nM.

Regarding `Cn1c(=O)c(Nc2ccc(N3CCCC(C(=O)O)C3)cc2)nc2ccc(-c3cn[nH]c3)cc21` (stereo not drawn) [Example 55, 1-(4-((4-methyl-3-oxo-6-(1H-pyrazol-4-yl)-3,4-dihydroquinoxalin-2-yl)amino)phenyl)piperidine-3-carboxylic acid], the IC50 in assay [1] turned out to be 4.1 nM; in assay [2] (read-out: Inhibit AKT phosphorylation IC50 (nM)) it was 116 nM.

As to `Cn1c(=O)c(Nc2ccc(N3CCOCC3)cc2)nc2ccc(-c3csc(N)n3)cc21` [Example 59, 7-(2-Aminothiazol-4-yl)-1-methyl-3-((4-morpholinephenyl)amino)quinoxaline-2(1H)-one], the IC50 in assay [1] is 46 nM; in assay [2] (setting [3]), 248 nM.
